The results in this text go back to BindingDB's records for doi:10.1021/cc020096o (University of Anterwerp, 2003).

In one test the target is Dipeptidyl peptidase 4 (Homo sapiens, UniProt P27487). Put plainly: DPP IV Assay. Conditions: pH 8.3. How it is done:
Inhibitory concentration of the compound against Dipeptidyl peptidase IV (DPP IV) in Homo sapiens (human)is measured

For a further test, the target named is Dipeptidyl peptidase 2 (Homo sapiens, UniProt Q9UHL4). Put plainly: DPP IV Assay. Conditions: pH 5.5.

Structures are written as SMILES. Where only a bound is given, the exact number is not on record here.

Chain of Dipeptidyl peptidase 4 (P27487 whole entry): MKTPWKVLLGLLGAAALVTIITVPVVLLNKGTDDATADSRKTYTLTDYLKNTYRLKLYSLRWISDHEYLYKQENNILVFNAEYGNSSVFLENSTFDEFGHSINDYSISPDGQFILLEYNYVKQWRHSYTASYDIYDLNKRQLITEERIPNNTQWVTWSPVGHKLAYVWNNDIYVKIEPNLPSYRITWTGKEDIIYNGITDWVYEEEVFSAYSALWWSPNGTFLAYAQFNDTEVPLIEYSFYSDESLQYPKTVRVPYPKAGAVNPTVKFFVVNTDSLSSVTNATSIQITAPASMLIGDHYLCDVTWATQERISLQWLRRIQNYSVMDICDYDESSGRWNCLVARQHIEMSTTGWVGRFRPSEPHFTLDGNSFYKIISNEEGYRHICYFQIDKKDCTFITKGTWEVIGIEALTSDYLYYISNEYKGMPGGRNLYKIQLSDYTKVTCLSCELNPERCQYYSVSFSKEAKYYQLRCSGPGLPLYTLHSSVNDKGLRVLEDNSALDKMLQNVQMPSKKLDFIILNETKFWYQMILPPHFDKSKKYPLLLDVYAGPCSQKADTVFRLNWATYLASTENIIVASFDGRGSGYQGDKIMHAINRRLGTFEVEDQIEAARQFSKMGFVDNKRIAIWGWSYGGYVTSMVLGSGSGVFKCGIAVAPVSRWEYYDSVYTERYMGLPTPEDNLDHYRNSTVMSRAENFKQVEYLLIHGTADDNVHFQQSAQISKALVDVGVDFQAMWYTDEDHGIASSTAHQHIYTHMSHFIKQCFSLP

What is called IC50 is the point on the concentration scale where inhibition reaches its midpoint. Read a low IC50 as higher potency. With `N[C@@H](Cc1cnc[nH]1)C(=O)N1CCCC1P(=O)(Oc1ccccc1)Oc1ccccc1` (some centres undefined), the IC50 on Dipeptidyl peptidase 4 came to 326 µM.
Regarding `CC(NC(=O)[C@@H](N)CO)P(=O)(Oc1ccccc1)Oc1ccccc1` (stereo partly drawn) [(2S)-2-amino-N-(1-diphenoxyphosphorylethyl)-3-hydroxy-propanamide], the IC50 against Dipeptidyl peptidase 4 was greater than 500 µM; against Dipeptidyl peptidase 2, greater than 1000 µM.
The like results for `N[C@@H](CC1CCCCC1)C(=O)NC(C1CCCCC1)P(=O)(Oc1ccccc1)Oc1ccccc1` (stereo partly drawn) [(2S)-2-amino-3-cyclohexyl-N-[cyclohexyl(diphenoxyphosphoryl)methyl]propanamide] were, in that order, greater than 250 µM and 30 µM.
The like results for `CCC(C)[C@H](N)C(=O)NC(c1cccc(C#N)c1)P(=O)(Oc1ccccc1)Oc1ccccc1` (stereo partly drawn) [(2S)-2-amino-N-[(3-cyanophenyl)-diphenoxyphosphoryl-methyl]-3-methyl-pentanamide] were, in that order, greater than 125 µM and 509 µM.
The matching figures for `NCC[C@H](N)C(=O)NC(C1CCCCC1)P(=O)(Oc1ccccc1)Oc1ccccc1` (stereo partly drawn) [(2S)-2,4-diamino-N-[cyclohexyl(diphenoxyphosphoryl)methyl]butanamide]: 1000 µM and 21 µM.
As to `N[C@@H](Cc1cnc[nH]1)C(=O)NC(C1CCCCC1)P(=O)(Oc1ccccc1)Oc1ccccc1` (stereo partly drawn) [(2S)-2-amino-N-[cyclohexyl(diphenoxyphosphoryl)methyl]-3-(1H-imidazol-4-yl)propanamide], the IC50 on Dipeptidyl peptidase 4 is greater than 1000 µM; against Dipeptidyl peptidase 2, 241 µM.
As to `CC(NC(=O)[C@@H](N)Cc1ccc(O)cc1)P(=O)(Oc1ccccc1)Oc1ccccc1` (stereo partly drawn) [(2S)-2-amino-N-(1-diphenoxyphosphorylethyl)-3-(4-hydroxyphenyl)propanamide], the half-maximal inhibitory concentration (IC50) on Dipeptidyl peptidase 4 and against Dipeptidyl peptidase 2 was greater than 500 µM each time.
As for `CCCC(NC(=O)[C@@H](N)CC1CCCCC1)P(=O)(Oc1ccccc1)Oc1ccccc1` (stereo partly drawn) [(2S)-2-amino-3-cyclohexyl-N-(1-diphenoxyphosphorylbutyl)propanamide], the IC50 was greater than 250 µM at Dipeptidyl peptidase 4 and 500 µM at Dipeptidyl peptidase 2.
The like results for `NCCCC[C@H](N)C(=O)N1CCCC1P(=O)(Oc1ccccc1)Oc1ccccc1` (some centres undefined) were, in that order, 117 µM and greater than 1000 µM.
`O=C(CNC1CCCC1)NC(C1CCCCC1)P(=O)(Oc1ccccc1)Oc1ccccc1` (centres undefined) [N-[cyclohexyl(diphenoxyphosphoryl)methyl]-2-(cyclopentylamino)acetamide]: the IC50 was greater than 125 µM against Dipeptidyl peptidase 4 and 8 µM at Dipeptidyl peptidase 2.
The matching figures for `CCC(C)[C@H](N)C(=O)NC(c1ccc(C#N)cc1)P(=O)(Oc1ccccc1)Oc1ccccc1` (stereo partly drawn) [(2S)-2-amino-N-[(4-cyanophenyl)-diphenoxyphosphoryl-methyl]-3-methyl-pentanamide]: greater than 250 µM and 150 µM.
For `CCC(CC)C(NC(=O)[C@@H](N)C(C)CC)P(=O)(Oc1ccccc1)Oc1ccccc1` (stereo partly drawn) [(2S)-2-amino-N-(1-diphenoxyphosphoryl-2-ethyl-butyl)-3-methyl-pentanamide], the IC50 on Dipeptidyl peptidase 4 and at Dipeptidyl peptidase 2 was greater than 1000 µM each time.
For `CC(C)[C@H](N)C(=O)NC(C)P(=O)(Oc1ccccc1)Oc1ccccc1` (stereo partly drawn) [(2S)-2-amino-N-(1-diphenoxyphosphorylethyl)-3-methyl-butanamide], the IC50 is greater than 500 µM at Dipeptidyl peptidase 4 and less than 1000 µM against Dipeptidyl peptidase 2.
The matching figures for `CCC(C)[C@H](N)C(=O)NC(C(C)C)P(=O)(Oc1ccccc1)Oc1ccccc1` (stereo partly drawn) [(2S)-2-amino-N-(1-diphenoxyphosphoryl-2-methyl-propyl)-3-methyl-pentanamide]: greater than 1000 µM and 1000 µM.
As for `CC(NC(=O)[C@@H](N)CCCCN)P(=O)(Oc1ccccc1)Oc1ccccc1` (stereo partly drawn) [(2S)-2,6-diamino-N-(1-diphenoxyphosphorylethyl)hexanamide], the values for the IC50 against Dipeptidyl peptidase 4 and against Dipeptidyl peptidase 2 were greater than 500 µM and greater than 1000 µM, respectively.
The matching figures for `C[C@H](N)C(=O)N1CCCC1P(=O)(Oc1ccccc1)Oc1ccccc1` (some centres undefined): greater than 1000 µM and greater than 1000 µM.
Turning to `N[C@@H](Cc1ccccc1)C(=O)N1CCCC1P(=O)(Oc1ccccc1)Oc1ccccc1` (some centres undefined), the IC50 against Dipeptidyl peptidase 4 was 142 µM; on Dipeptidyl peptidase 2 it was greater than 1000 µM.
On to `N[C@@H](CO)C(=O)N1CCCC1P(=O)(Oc1ccccc1)Oc1ccccc1` (stereo partly drawn) [(2S)-2-amino-1-(2-diphenoxyphosphorylpyrrolidin-1-yl)-3-hydroxy-propan-1-one], for which the IC50 on Dipeptidyl peptidase 4 is 503 µM; on Dipeptidyl peptidase 2, greater than 1000 µM.
Consider `CC(NC(=O)[C@@H](N)Cc1cnc[nH]1)P(=O)(Oc1ccccc1)Oc1ccccc1` (stereo partly drawn) [(2S)-2-amino-N-(1-diphenoxyphosphorylethyl)-3-(1H-imidazol-4-yl)propanamide], for which the IC50 against Dipeptidyl peptidase 4 and against Dipeptidyl peptidase 2 was greater than 500 µM each time.
With `CCC(C)[C@H](N)C(=O)NC(C1CCCCC1)P(=O)(Oc1ccccc1)Oc1ccccc1` (stereo partly drawn) [(2S)-2-amino-N-[cyclohexyl(diphenoxyphosphoryl)methyl]-3-methyl-pentanamide], the results for the IC50 against Dipeptidyl peptidase 4 and against Dipeptidyl peptidase 2 were greater than 1000 µM and 148 µM, respectively.
Take `CC(C)C[C@H](N)C(=O)NC(C)P(=O)(Oc1ccccc1)Oc1ccccc1` (stereo partly drawn) [(2S)-2-amino-N-(1-diphenoxyphosphorylethyl)-4-methyl-pentanamide]: the values for the IC50 against Dipeptidyl peptidase 4 and on Dipeptidyl peptidase 2 were greater than 1000 µM and greater than 500 µM, respectively.
The matching figures for `CC(NC(=O)CN)P(=O)(Oc1ccccc1)Oc1ccccc1` (centres undefined) [2-amino-N-(1-diphenoxyphosphorylethyl)acetamide]: greater than 500 µM and greater than 1000 µM.
Regarding `O=C(CNC1CCCC1)NC(c1ccccc1)P(=O)(Oc1ccccc1)Oc1ccccc1` (centres undefined), the results for the IC50 against Dipeptidyl peptidase 4 and against Dipeptidyl peptidase 2 were greater than 125 µM and 3.8 µM, respectively.
The like results for `CCC(C)C(NC(=O)[C@@H](N)C(C)CC)P(=O)(Oc1ccccc1)Oc1ccccc1` (stereo partly drawn) [(2S)-2-amino-N-(1-diphenoxyphosphoryl-2-methyl-butyl)-3-methyl-pentanamide] were, in that order, greater than 1000 µM and 414 µM.
In the case of `CC(NC(=O)[C@@H](N)CC1CCCCC1)P(=O)(Oc1ccccc1)Oc1ccccc1` (stereo partly drawn) [(2S)-2-amino-3-cyclohexyl-N-(1-diphenoxyphosphorylethyl)propanamide], the IC50 on Dipeptidyl peptidase 4 is greater than 500 µM; on Dipeptidyl peptidase 2, 47 µM.
In the case of `CC(NC(=O)[C@H](C)N)P(=O)(Oc1ccccc1)Oc1ccccc1` (stereo partly drawn) [(2S)-2-amino-N-(1-diphenoxyphosphorylethyl)propanamide], the IC50 at Dipeptidyl peptidase 2 is less than 1000 µM.
`CC(NC(=O)[C@@H](N)Cc1ccccc1)P(=O)(Oc1ccccc1)Oc1ccccc1` (stereo partly drawn) [(2S)-2-amino-N-(1-diphenoxyphosphorylethyl)-3-phenyl-propanamide]: the IC50 was greater than 500 µM at Dipeptidyl peptidase 4 and less than 1000 µM against Dipeptidyl peptidase 2.
The matching figures for `CCCC(NC(=O)[C@@H](N)C(C)CC)P(=O)(Oc1ccccc1)Oc1ccccc1` (stereo partly drawn) [(2S)-2-amino-N-(1-diphenoxyphosphorylbutyl)-3-methyl-pentanamide]: greater than 1000 µM and 1000 µM.
On to `CC(NC(=O)[C@@H](N)CC(N)=O)P(=O)(Oc1ccccc1)Oc1ccccc1` (stereo partly drawn) [(2S)-2-amino-N-(1-diphenoxyphosphorylethyl)butanediamide], for which, at Dipeptidyl peptidase 2, the IC50 came out at 286 µM.
`CCC(C)[C@H](N)C(=O)NC(CC(C)C)P(=O)(Oc1ccccc1)Oc1ccccc1` (stereo partly drawn) [(2S)-2-amino-N-(1-diphenoxyphosphoryl-3-methyl-butyl)-3-methyl-pentanamide]: the IC50 against Dipeptidyl peptidase 4 is greater than 1000 µM; against Dipeptidyl peptidase 2, 286 µM.
`NC(=O)C[C@H](N)C(=O)N1CCCC1P(=O)(Oc1ccccc1)Oc1ccccc1` (some centres undefined) displayed an IC50 at Dipeptidyl peptidase 2 greater than 125 µM.
For `CCC(C)[C@H](N)C(=O)NC(C)P(=O)(Oc1ccccc1)Oc1ccccc1` (stereo partly drawn) [(2S)-2-amino-N-(1-diphenoxyphosphorylethyl)-3-methyl-pentanamide], the IC50 against Dipeptidyl peptidase 4 was greater than 500 µM; on Dipeptidyl peptidase 2, 116 µM.
For the molecule `N[C@@H](CC(=O)O)C(=O)N1CCCC1P(=O)(Oc1ccccc1)Oc1ccccc1` (some centres undefined), the IC50 at Dipeptidyl peptidase 4 is greater than 1000 µM.
As for `CCC(C)[C@H](N)C(=O)NC(c1ccccc1)P(=O)(Oc1ccccc1)Oc1ccccc1` (stereo partly drawn) [(2S)-2-amino-N-[diphenoxyphosphoryl(phenyl)methyl]-3-methyl-pentanamide], the IC50 was greater than 250 µM against Dipeptidyl peptidase 4 and 18 µM at Dipeptidyl peptidase 2.
For `CCC(NC(=O)[C@@H](N)CC1CCCCC1)P(=O)(Oc1ccccc1)Oc1ccccc1` (stereo partly drawn) [(2S)-2-amino-3-cyclohexyl-N-(1-diphenoxyphosphorylpropyl)propanamide], the IC50 against Dipeptidyl peptidase 4 is greater than 1000 µM; on Dipeptidyl peptidase 2, 62 µM.
The matching figures for `CCC(C)[C@H](N)C(=O)NC(CC)P(=O)(Oc1ccccc1)Oc1ccccc1` (stereo partly drawn) [(2S)-2-amino-N-(1-diphenoxyphosphorylpropyl)-3-methyl-pentanamide]: greater than 1000 µM and 1000 µM.
With `CCCC(NC(=O)[C@@H](N)CCCCN)P(=O)(Oc1ccccc1)Oc1ccccc1` (stereo partly drawn) [(2S)-2,6-diamino-N-(1-diphenoxyphosphorylbutyl)hexanamide], the IC50 against Dipeptidyl peptidase 4 and against Dipeptidyl peptidase 2 was greater than 1000 µM throughout.
